Target: T1, EcoR124I (HsdR reconstituted with HsdS-HsdM2 methylase) (Escherichia coli, UniProt P10486)
T1 construct: holoenzyme reconstituted from purified HsdR (pTrcR124) and EcoR124I methylase HsdS-HsdM2 (pJS4M, JM109(DE3)), on plasmid DNA with one site; with Type I restriction enzyme EcoR124I/EcoR124II methylase subunit; Type I restriction enzyme EcoR124I specificity subunit
T1 sequence (P10486 1-1038): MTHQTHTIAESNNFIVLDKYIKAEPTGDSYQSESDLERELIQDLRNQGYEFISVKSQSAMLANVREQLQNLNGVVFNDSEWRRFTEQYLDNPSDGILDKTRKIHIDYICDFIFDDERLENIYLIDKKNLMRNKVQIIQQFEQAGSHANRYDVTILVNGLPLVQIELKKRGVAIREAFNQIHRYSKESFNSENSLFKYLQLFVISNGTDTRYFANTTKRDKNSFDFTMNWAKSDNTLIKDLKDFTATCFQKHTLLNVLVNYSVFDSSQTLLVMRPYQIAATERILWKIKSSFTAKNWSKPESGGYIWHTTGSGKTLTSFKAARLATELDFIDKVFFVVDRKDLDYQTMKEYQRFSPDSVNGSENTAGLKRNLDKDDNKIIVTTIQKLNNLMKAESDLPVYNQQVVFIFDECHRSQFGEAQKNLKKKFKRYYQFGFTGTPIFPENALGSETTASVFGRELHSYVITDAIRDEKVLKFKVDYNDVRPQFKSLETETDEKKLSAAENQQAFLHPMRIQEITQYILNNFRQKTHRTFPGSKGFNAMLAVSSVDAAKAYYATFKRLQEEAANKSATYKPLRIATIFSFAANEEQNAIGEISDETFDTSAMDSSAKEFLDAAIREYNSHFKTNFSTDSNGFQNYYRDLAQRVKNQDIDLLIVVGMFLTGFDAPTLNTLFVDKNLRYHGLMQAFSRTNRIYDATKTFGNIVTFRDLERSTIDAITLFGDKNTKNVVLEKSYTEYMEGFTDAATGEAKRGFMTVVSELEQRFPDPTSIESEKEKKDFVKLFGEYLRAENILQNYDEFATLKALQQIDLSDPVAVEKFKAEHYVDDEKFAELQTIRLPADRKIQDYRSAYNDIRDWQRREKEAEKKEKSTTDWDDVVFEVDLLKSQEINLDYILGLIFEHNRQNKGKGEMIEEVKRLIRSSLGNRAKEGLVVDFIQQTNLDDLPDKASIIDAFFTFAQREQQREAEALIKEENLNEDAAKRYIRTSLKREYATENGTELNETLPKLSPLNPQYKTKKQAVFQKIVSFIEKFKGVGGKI
T1 sequence (P10485 1-404 partner): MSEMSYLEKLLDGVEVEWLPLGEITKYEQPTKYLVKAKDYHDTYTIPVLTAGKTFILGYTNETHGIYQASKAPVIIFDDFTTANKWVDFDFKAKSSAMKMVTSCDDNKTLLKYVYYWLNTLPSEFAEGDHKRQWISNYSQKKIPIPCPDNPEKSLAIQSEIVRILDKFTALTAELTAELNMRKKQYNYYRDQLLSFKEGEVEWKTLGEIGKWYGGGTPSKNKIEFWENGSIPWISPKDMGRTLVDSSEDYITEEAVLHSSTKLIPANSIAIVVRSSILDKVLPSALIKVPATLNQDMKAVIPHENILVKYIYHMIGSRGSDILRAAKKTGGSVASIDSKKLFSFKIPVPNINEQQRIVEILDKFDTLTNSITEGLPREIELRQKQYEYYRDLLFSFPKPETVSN
T1 sequence (P10484 1-520 partner): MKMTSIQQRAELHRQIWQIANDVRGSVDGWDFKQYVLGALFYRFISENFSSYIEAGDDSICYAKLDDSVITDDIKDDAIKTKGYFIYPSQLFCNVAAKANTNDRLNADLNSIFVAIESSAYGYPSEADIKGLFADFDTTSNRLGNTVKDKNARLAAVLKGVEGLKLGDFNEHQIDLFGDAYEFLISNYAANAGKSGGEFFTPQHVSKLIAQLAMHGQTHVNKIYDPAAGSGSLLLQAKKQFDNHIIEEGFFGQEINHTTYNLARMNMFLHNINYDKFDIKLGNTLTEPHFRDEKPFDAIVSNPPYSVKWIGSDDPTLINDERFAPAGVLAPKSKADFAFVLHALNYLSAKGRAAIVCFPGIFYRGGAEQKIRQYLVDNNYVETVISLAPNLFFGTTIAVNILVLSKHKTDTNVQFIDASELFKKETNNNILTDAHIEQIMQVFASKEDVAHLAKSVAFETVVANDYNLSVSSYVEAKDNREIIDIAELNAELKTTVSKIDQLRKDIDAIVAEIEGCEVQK
Assay: DNA-dependent ATPase, gamma-32P-ATP with TLC
Assay type: biochemical
Conditions: 2 mM ATP; 15 nM methylase, 90 nM HsdR, 90 nM plasmid DNA; 10 mM MgCl2; pH 7.9; 37 C; turnover only; gamma-32P-ATP tracer

## Nc1ncnc2c1ncn2[C@@H]1O[C@H](COP(=O)(O)OP(=O)(O)OP(=O)(O)O)[C@@H](O)[C@H]1O [ATP]
  DNA-dependent ATPase, gamma-32P-ATP with TLC: The results for the WT enzyme reproduce its previously reported ATPase activity
